Reference: PubChem BioAssay (NCI)
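Cultured in 96-well plates, cells were exposed to test compound for 48 hours across five concentrations. GI50 marks 50% less growth. The concentration for full growth arrest is given as TGI.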

Assays:
Assay in all cases: growth of human tumour cells (NCI), 48 h
M14 melanoma = test system: M14 melanoma
MALME-3M melanoma = test system: MALME-3M melanoma
A498 renal = test system: A498 renal
SK-MEL-28 melanoma = test system: SK-MEL-28 melanoma
T-47D breast = test system: T-47D breast
KM12 colon = test system: KM12 colon
SR leukemia = test system: SR leukemia
OVCAR-8 ovarian = test system: OVCAR-8 ovarian
UACC-62 melanoma = test system: UACC-62 melanoma
HL-60(TB) leukemia = test system: HL-60(TB) leukemia

Compound | GI50 (M14 melanoma) | TGI (M14 melanoma) | GI50 (MALME-3M melanoma) | TGI (MALME-3M melanoma) | GI50 (A498 renal) | TGI (A498 renal) | GI50 (SK-MEL-28 melanoma) | TGI (SK-MEL-28 melanoma) | GI50 (T-47D breast) | TGI (T-47D breast) | GI50 (KM12 colon) | TGI (KM12 colon) | GI50 (SR leukemia) | TGI (SR leukemia) | GI50 (OVCAR-8 ovarian) | TGI (OVCAR-8 ovarian) | GI50 (UACC-62 melanoma) | TGI (UACC-62 melanoma) | TGI (HL-60(TB) leukemia) | GI50 (HL-60(TB) leukemia)
CCOC(=O)Oc1c(OC)cc(C(=O)c2ccc(OC)c(OC(=O)CCl)c2OC)cc1OC | 0.491 µM | > 100 µM | 0.688 µM | 79.9 µM | 3 µM | 16.6 µM | 2.31 µM | > 100 µM | 7.32 µM | > 100 µM | 0.543 µM | > 100 µM | 0.459 µM | > 100 µM | 2.65 µM | > 100 µM | 2.67 µM | > 100 µM |  | 
CCOC(=O)c1[nH]c2cccc3c2c1CC(Br)C3=O (configuration not stated) |  | 27.2 µM |  | 28.2 µM |  | 32.3 µM |  | 38.4 µM |  | 40.9 µM |  | 30.5 µM |  | 4.99 µM |  | 41.5 µM |  |  | 10.7 µM | 
CCNCCNc1cc(-c2ccc(Cl)cc2)c(C#N)c2nc3ccccc3n12 | 1.88 µM | 3.38 µM | 1.69 µM | 3.38 µM | 2.01 µM | 3.52 µM | 1.8 µM | 3.34 µM | 1.74 µM | 3.86 µM | 1.73 µM | 3.24 µM | 0.282 µM | 0.69 µM |  |  | 1.85 µM | 3.65 µM | 3.65 µM | 1.65 µM
COc1c(O)cc2oc3cc(O)c(CC=C(C)C)c(O)c3c(=O)c2c1C/C=C(\C)CCC=C(C)C | 6.17 µM | 12.6 µM | 6.34 µM | 12 µM | 5.96 µM | 10.5 µM | 5.4 µM | 10.3 µM |  |  | 5.47 µM | 9.91 µM | 5.45 µM | 13.2 µM | 5.45 µM | 10.6 µM | 5.51 µM | 11.3 µM | 17.7 µM | 7.69 µM
O=[N+]([O-])c1ccc2c(c1)OCCOCCOc1ccc([N+](=O)[O-])cc1OCCOCCO2 |  | > 100 µM |  | > 100 µM |  | > 100 µM |  | > 100 µM |  |  |  | > 100 µM |  | > 100 µM |  | > 100 µM |  | > 100 µM | > 100 µM | 
COc1cc(-c2cc(C(=O)Nc3nc4ccccc4s3)nc3cc(-c4ccccc4)nn23)cc(OC)c1OC | 2.39 µM | > 100 µM | 12.4 µM | 56.2 µM | 9.29 µM | 36.7 µM | 3.34 µM | > 100 µM | 21.4 µM | > 100 µM | 22.6 µM | > 100 µM | 19.7 µM | 52.5 µM | 5.37 µM | > 100 µM | 14.4 µM | 80.4 µM |  | 
O=C1CC2(CCCc3sccc32)C(=O)N1 (configuration not stated) |  | > 100 µM |  | > 100 µM |  | > 100 µM |  | > 100 µM |  | > 100 µM |  | > 100 µM |  |  |  | > 100 µM |  | > 100 µM | > 100 µM | 
COc1ccc(-c2nc3sccn3c2/C=C/C(=O)c2cc(OC)c(OC)c(OC)c2)cc1OC | 3.1 µM | 9.3 µM | 3.33 µM | 54.1 µM | 2.6 µM | 8.2 µM |  |  | 1.72 µM | 5.83 µM | 2.04 µM | 4.53 µM | 1.3 µM | 4.15 µM | 2.47 µM | 7.15 µM | 2.15 µM | 5.55 µM | 4.98 µM | 1.84 µM
